Experimental data taken from patent publication US8088804B2, “N-hydroxyamide derivatives possessing antibacterial activity” (Pfizer Inc., priority 2005, dated 2012).
Values after ≈ are worked out from the molar mass of the structure shown.

Assays:
E. coli (2) = assay: Susceptibility testing (MIC, CLSI microdilution); assay type: cell-based, Escherichia coli; conditions: 20 h at 35° C., in µg/mL (unit assumed)
Protocol: (§1) Compounds were tested following the microdilution method of CLSI (Clinical and Laboratory Standards Institute. Methods for dilution antimicrobial susceptibility tests for bacteria that grow aerobically; Approved standard—sixth edition. CLSI document M7-A5, CLSI, Wayne, Pa. 2003). Assays were performed in sterile plastic 96-well microtiter trays with round bottom wells (Greiner).
(§2) Stock solutions of test compounds and control antibiotics were prepared at 10 mg/ml in DMSO. Serial 2-fold dilutions of each drug were performed in a microtiter plate across each row using DMSO as solvent at 100-fold the desired final concentration. Wells in columns #1-11 contain drug and column #12 was kept as a growth control for the organism with no drug. Each well in the mother plate was diluted with sterile deionized water and DMSO, mixed, and volumes of 10 μl distributed to each well in the resulting assay plates.
(§3) Stock cultures were prepared using the Microbank™ method (Pro-Lab Diagnostics) and stored at −80° C. To propagate each strain, one bead was removed from the frozen vial and aseptically streaked onto Trypticase Soy Agar (Difco) which were incubated at 35° C. Standardized inocula were prepared using the direct colony suspension method according to CLSI guidelines (Clinical and Laboratory Standards Institute. Methods for dilution antimicrobial susceptibility tests for bacteria that grow aerobically; Approved standard—sixth edition. CLSI document M7-A5, CLSI, Wayne, Pa., 2003). Isolated colonies were selected from an 18-24 hr agar plate and resuspended in 0.9% sterile saline to match a 0.5 McFarland turbidity standard using a calorimeter (Vitek) at 80% of transmitance. The suspension was used within 15 minutes of preparation.
(§4) Mueller-Hinton Broth (MHB) (Difco) was prepared at a 1.1× concentration and supplemented with Ca++ and Mg++ as recommended by CLSI. For each organism, the standardized suspension was diluted 1:180 into appropriate growth medium in a sterile reservoir. After mixing, wells in the drug-containing assay plates were inoculated with a volume of 90 μl. Thus, for each minimum inhibitory concentration (MIC) determination, each well contains a final volume of 100 μl with an inoculum size of approximately 5×10^5 colony forming units (cfu)/ml and no more than 1% DMSO.
(§5) The completed microtiter plates were incubated 20 h at 35° C. in ambient air. Optical density of each well was determined at 600 nm using a VersaMax Microplate reader (Molecular Devices, Sunnyvale, Calif.). The MIC was defined as the lowest drug concentration causing complete suppression of visible bacterial growth.

E. coli tolC = assay: Susceptibility testing (MIC, CLSI microdilution); assay type: cell-based, Escherichia coli; conditions: 20 h at 35° C., unit assumed
Protocol: as §1, §2, §3, §4, §5

P. aerug. (2) = assay: Susceptibility testing (MIC, CLSI microdilution); assay type: cell-based, Pseudomonas aeruginosa; conditions: 20 h at 35° C., in µg/mL (unit assumed)
Protocol: as §1, §2, §3, §4, §5

P. aerug. Hypersuc = assay: Susceptibility testing (MIC, CLSI microdilution); assay type: cell-based, Pseudomonas aeruginosa; conditions: 20 h at 35° C., Δ efflux, hypersusceptible strain, unit assumed
Protocol: as §1, §2, §3, §4, §5

K. pneu. = assay: Susceptibility testing (MIC, CLSI microdilution); assay type: cell-based, Klebsiella pneumoniae; conditions: 20 h at 35° C., unit assumed
Protocol: as §1, §2, §3, §4, §5

H. influen. = assay: Susceptibility testing (MIC, CLSI microdilution); assay type: cell-based, Haemophilus influenzae; conditions: 20 h at 35° C., unit assumed
Protocol: as §1, §2, §3, §4, §5

P. ae LpxC enzyme = P. ae LpxC enzyme (Pseudomonas aeruginosa, UniProt P47205); assay: Enzyme inhibition testing (fluorescamine assay); assay type: biochemical; conditions: read-out: ENZYME (percent inhibition); for inhibition at 0.1 µg/mL: @0.1 μg/ml; for inhibition at 0.5 µg/mL: @0.5 μg/ml; for inhibition at 10 µg/mL: @10 μg/ml
P. ae LpxC enzyme, sequence (P47205 whole entry): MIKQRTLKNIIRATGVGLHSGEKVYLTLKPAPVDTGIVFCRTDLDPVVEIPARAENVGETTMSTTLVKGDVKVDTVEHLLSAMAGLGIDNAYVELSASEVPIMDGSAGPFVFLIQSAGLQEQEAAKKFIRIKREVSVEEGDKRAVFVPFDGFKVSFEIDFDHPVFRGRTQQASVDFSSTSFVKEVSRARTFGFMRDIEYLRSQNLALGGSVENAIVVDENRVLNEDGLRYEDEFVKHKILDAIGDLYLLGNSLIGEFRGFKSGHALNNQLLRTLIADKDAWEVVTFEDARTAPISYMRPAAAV
Protocol: Compounds were tested based on a published method (Wang W., 2001, Anal Biochem, 290, 338-46) with modifications. Enzyme assays were performed in the assay buffer (50 mM HEPES, pH8, 0.005% Brij, 50 μM ZnSO4, 1 mg/ml BSA) in 96-well V-bottom microtiter plates.
Stock solutions of test compounds and control antibiotics are prepared at 10 mg/ml in DMSO and are diluted in the assay buffer to 6-fold the final testing concentration. 5 μl compound dilution is distributed to the well of the assay plate. EDTA is used as positive control and the final concentration in assay is 12.5 mM.
P. ae LpxC enzyme dilution in the assay buffer is added to the compound in plate and pre-incubated with the compound at room temperature for 10 min. LpxC substrate is added to initiate the enzyme reaction and the final enzyme and substrate concentrations are 1.2 μM and 0.4 mM, respectively. The reaction continues at RT for 4 hrs before diluted with 45 μl of Borate buffer (0.4 M, pH9), followed by addition of 40 μl derivatization reagent (fluorescamine 2 mg/ml DMF). This mixture is incubated at RT for 10 min followed by addition of 150 μl DMF/H2O (1:1). The resulting solution is loaded onto Millipore filter unit (Microcon 10 k MWCO) and spun at 13 k rpm on bench top centrifuge for 15 min. 100 μl of this filtrate is transferred to a low fluorescence clear-bottom 96-well plate (Corning) and the fluorescence is detected at ex360 nm and em465 nm on a Tecan fluorescence plate reader. The percent inhibition is calculated based on EDTA produces 100% inhibition and negative control produces 100% activity.

Compound | MIC E. coli (2) (E. coli (2)) | MIC E. coli tolC (E. coli tolC) | MIC P. aerug. (2) (P. aerug. (2)) | MIC P. aerug. Hypersuc (P. aerug. Hypersuc) | MIC K. pneu. (K. pneu.) | MIC H. influen. (H. influen.) | inhibition at 0.1 µg/mL (P. ae LpxC enzyme) | inhibition at 0.5 µg/mL (P. ae LpxC enzyme) | inhibition at 10 µg/mL (P. ae LpxC enzyme) | inhibition at 1 µg/mL (P. ae LpxC enzyme; @1 μg/ml)
CCOc1ccc(-c2ccc(C(=O)NC(C(=O)NO)C(F)(F)F)cc2)cc1 (racemic) [Compound 22, DL-4′-Ethoxy-biphenyl-4-carboxylic acid (2,2,2-trifluoro-1-hydroxycarbamoyl-ethyl)-amide] | 2 | 0.25 µg/mL (≈ 0.654 µM) | 16-32 | 0.5 µg/mL (≈ 1.31 µM) | 1 µg/mL (≈ 2.62 µM) | 0.5 µg/mL (≈ 1.31 µM) | < 10% |  |  | 
CCCc1ccc(-c2ccc(C(=O)N3CC[C@H](N=[N+]=[N-])[C@H]3C(=O)NO)cc2)cc1 [Compound 1, (2S,3S)-3-Azido-N-hydroxy-1-(4′-propylbiphenylcarbonyl)pyrrolidine-2-carboxamide] | >64 | 32 µg/mL (≈ 81.3 µM) | >64 | > 64 µg/mL | > 64 µg/mL | > 64 µg/mL |  | 35% |  | 
O=C(NC(C(=O)NO)C(F)(F)F)c1ccc(-c2ccc(F)cc2)cc1 (racemic) [Compound 25, DL-4′-Fluoro-N-(1,1,1-trifluoro-3-(hydroxyamino)-3-oxopropan-2-yl)biphenyl-4-carboxamide] | 8 | 4 µg/mL (≈ 11.2 µM) | 8-16 | 2 µg/mL (≈ 5.61 µM) | 16 µg/mL (≈ 44.9 µM) | 4 µg/mL (≈ 11.2 µM) | 12% |  |  | 
CCCc1ccc(-c2ccc(C(=O)NC(CF)C(=O)NO)cc2)cc1 (racemic) [Compound 21, DL-4′-Propyl-biphenyl-4-carboxylic acid (2-fluoro-1-hydroxycarbamoyl-ethyl)-amide] | 16-32 | 4 µg/mL (≈ 11.6 µM) | >64 | 16 µg/mL (≈ 46.5 µM) | 8 µg/mL (≈ 23.2 µM) | 8 µg/mL (≈ 23.2 µM) |  | 77% |  | 
CCCc1ccc(-c2ccc(C(=O)N3CC[C@@H](OC)[C@H]3C(=O)NO)cc2)cc1 [Compound 8] | >64 | 32 µg/mL (≈ 83.7 µM) | >64 | > 64 µg/mL | > 64 µg/mL | 64 µg/mL (≈ 167 µM) |  |  | 21% | 
CCCc1ccc(-c2ccc(C(=O)N3CC[C@H](NS(C)(=O)=O)[C@H]3C(=O)NO)cc2)cc1 [Compound 3, (2S,3S)-N-Hydroxy-3-(methylsulfonamido)-1-(4′-propylbiphenylcarbonyl)pyrrolidine-2-carboxamide] | >64 | 32 µg/mL (≈ 71.8 µM) | >64 | > 64 µg/mL | > 64 µg/mL | > 64 µg/mL |  | 55% |  | 
CCCc1ccc(-c2ccc(C(=O)N3C[C@H](O)[C@H](O)[C@H]3C(=O)NO)cc2)cc1 [Compound 10] | >64 | 64 µg/mL (≈ 166 µM) | >64 | 64 µg/mL (≈ 166 µM) | > 64 µg/mL | > 64 µg/mL |  | 60% |  | 
CCCc1ccc(-c2ccc(C(=O)N3C[C@@](O)(COC)C[C@H]3C(=O)NO)cc2)cc1 [Compound 9, (2S,4R)-N,4-Dihydroxy-4-(methoxymethyl)-1-(4′-propylbiphenylcarbonyl)pyrrolidine-2-carboxamide] | >64 | > 64 µg/mL | >64 | 32 µg/mL (≈ 77.6 µM) | > 64 µg/mL | > 64 µg/mL |  |  |  | 57%
CCCc1ccc(-c2ccc(C(=O)N3CCS[C@H]3C(=O)NO)cc2)cc1 [Compound 13] | >64 | > 64 µg/mL | 64 | 16 µg/mL (≈ 43.2 µM) | 32 µg/mL (≈ 86.4 µM) | 64 µg/mL (≈ 173 µM) |  |  | 71% | 
CCCc1ccc(-c2ccc(C(=O)N[C@@H](CCS(C)(=O)=O)C(=O)NO)cc2)cc1 [Compound 27, (S)-N-(1-(Hydroxyamino)-4-(methylsulfone)-1-oxobutan-2-yl)-4′-propylbiphenyl-4-carboxamide] | >64 | > 64 µg/mL | >64 | > 64 µg/mL | > 64 µg/mL | > 64 µg/mL | 38% |  |  | 
CCCc1ccc(-c2ccc(C(=O)N3CCS[C@@H]3C(=O)NO)cc2)cc1 [Compound 18, (R)-N-Hydroxy-3-(4′-propylbiphenylcarbonyl)thiazolidine-2-carboxamide] | >64 | 16 µg/mL (≈ 43.2 µM) | >64 | 32 µg/mL (≈ 86.4 µM) | 32 µg/mL (≈ 86.4 µM) | 64 µg/mL (≈ 173 µM) |  | 50% |  | 
CCCc1ccc(-c2ccc(C(=O)N3CC[C@H](NC)[C@H]3C(=O)NO)cc2)cc1 [Compound 5] | 64 | 32 µg/mL (≈ 83.9 µM) | >64 | 64 µg/mL (≈ 168 µM) | > 64 µg/mL | 32 µg/mL (≈ 83.9 µM) |  | 29% |  | 
CCCc1ccc(-c2ccc(C(=O)NC(C(=O)NO)C(F)(F)F)cc2)cc1 (racemic) [Compound 20, DL-4′-Propyl-biphenyl-4-carboxylic acid (2,2,2-trifluoro-1-hydroxycarbamoyl-ethyl)-amide] | 0.5 | 0.25 µg/mL (≈ 0.657 µM) | 16 | 1 µg/mL (≈ 2.63 µM) | 0.5 µg/mL (≈ 1.31 µM) | 0.25 µg/mL (≈ 0.657 µM) | < 10% |  |  | 
CCCc1ccc(-c2ccc(C(=O)N3CC[C@H](F)[C@H]3C(=O)NO)cc2)cc1 [Compound 6] | >64 | 16 µg/mL (≈ 43.2 µM) | >64 | 32 µg/mL (≈ 86.4 µM) | 32 µg/mL (≈ 86.4 µM) | > 64 µg/mL |  | 87% |  | 
O=C(NO)[C@H]1N(C(=O)c2ccc(-c3ccc(C(F)(F)F)cc3)cc2)CCS1(=O)=O [Compound 38, (S)-3-(4′-(Trifluoromethyl)biphenylcarbonyl)-N-hydroxythiazolidinesulfone-2-carboxamide] | >64 | ≤ 0.06 µg/mL | 32 | 8 µg/mL (≈ 18.7 µM) | > 64 µg/mL | > 64 µg/mL | 30% |  |  | 
CCCc1ccc(-c2ccc(C(=O)N3CC[S+]([O-])[C@H]3C(=O)NO)cc2)cc1 (stereo partly drawn) [Compound 14, (S)-N-Hydroxy-3-(4′-propylbiphenylcarbonyl)thiazolidine-sulfoxide-2-carboxamide] | >64 | 16 µg/mL (≈ 41.4 µM) | 32 | 8 µg/mL (≈ 20.7 µM) | 64 µg/mL (≈ 166 µM) | > 64 µg/mL |  | 99% |  | 
